# In patent US20230338609A1, “MEDICAL DEVICES AND MATERIALS COMPRISING BIODEGRADABLE POLYESTERS” (AMICOAT AS, priority 2020, published 2023):
# Tests used:
# [1] = test system: Candida albicans ATCC24433 - reference strain; type: cell-based
# Method: (§1) Yeast and filamentous fungal MIC were performed in MOPS buffered RPMI 1640 medium (MOPS buffer obtained from Sigma Aldrich Ltd., RPMI 1640 obtained from Invitrogen Ltd, Paisley, Scotland). The yeast inocula were in the range 7.5×10^2-4×10^3 CFU/mL and the filamentous fungi approximately 8×10^3-1×10^5 CFU/mL
# [2] = test system: Candida tropicalis ATCC750 - reference strain; type: cell-based
# Method: as §1
# [3] = test system: Aspergillus niger - G.R. Micro collection; type: cell-based
# Method: as §1
# [4] = test system: Cryptococcus neoformans - G.R. Micro collection; type: cell-based
# Method: as §1
# [5] = test system: Trichophyton mentagrophytes - G.R. Micro collection; type: cell-based
# Method: as §1
# [6] = test system: Trichophyton interdigitale - G.R. Micro collection; type: cell-based
# Method: as §1
# [7] = test system: Candida albicans ATCC90028 - reference strain; type: cell-based
# Method: as §1
# [8] = test system: Microsporum canis - G.R. Micro collection; type: cell-based
# Method: as §1
# [9] = test system: Candida parapsilosis ATCC90018 - reference strain; type: cell-based
# Method: as §1
# [10] = test system: Staphylococcus aureus ATCC 43300 - methicillin-resistant control strain; type: cell-based
# Source text: (§2) Cation-adjusted Mueller-Hinton broth (Oxoid Ltd., Basingstoke, UK and Trek Diagnostic Systems Ltd., East Grinstead, UK) (supplemented with 5% laked horse blood for Streptococcus spp., Corynebacterium jeikeium and Listeria monocytogenes) was used for aerobic bacteria, with an initial inoculum of approximately 10^5 colony-forming units (CFU)/mL.
# [11] = test system: Streptococcus bovis - macrolide-resistant clinical isolate; type: cell-based
# Source text: as §2
# [12] = test system: Klebsiella aerogenes NCTC11228 - antibiotic-susceptible type strain; type: cell-based
# Source text: as §2
# [13] = test system: Enterococcus faecalis vancomycin-resistant (VanA) clinical isolate; type: cell-based
# Source text: as §2
# [14] = test system: EMRSA3 Staphylococcus aureus (MRSA) - SSCmec type 1; type: cell-based; details: EMRSA3 - SSCmec type 1
# Source text: as §2
# [15] = test system: Enterococcus faecalis - ATCC 29212 antibiotic-susceptible control strain; type: cell-based
# Source text: as §2
# [16] = test system: Staphylococcus haemolyticus - antibiotic susceptible clinical isolate; type: cell-based
# Source text: as §2
# [17] = test system: Streptococcus agalactiae - antibiotic-susceptible clinical isolate; type: cell-based
# Source text: as §2
# [18] = test system: Streptococcus pyogenes - Macrolide (MLS) resistant clinical isolate; type: cell-based
# Source text: as §2
# [19] = test system: EMRSA16 Staphylococcus aureus (MRSA) - SSCmec type 2; type: cell-based; details: EMRSA16 - SSCmec type 2
# Source text: as §2
# [20] = test system: EMRSA1 Staphylococcus aureus (MRSA) - SSCmec type 3; type: cell-based; details: EMRSA1 - SSCmec type 3
# Source text: as §2
# [21] = test system: Escherichia coli - multi-drug resistant clinical isolate; type: cell-based
# Source text: as §2
# [22] = test system: Streptococcus agalactiae - macrolide-resistant clinical isolate; type: cell-based
# Source text: as §2
# [23] = test system: Staphylococcus epidermidis antibiotic susceptible clinical isolate; type: cell-based
# Source text: as §2
# [24] = test system: Enterococcus faecalis vancomycin-susceptible clinical isolate; type: cell-based
# Source text: as §2
# E. coli = details: Table 5
# [25] = test system: Methicillin resistant Staphylococcus epidermidis (MRSE) strain ATCC 27626; details: ATCC 27626
# [26] = test system: Staphylococcus aureus FDA486; assay: Murine skin infection model, topical treatment; type: in vivo; details: mice; 2% cream; three treatments at three hourly intervals; biopsy three hours after last
# Method: (§3) The skin of mice was infected with Staphylococcus aureus or Streptococcus pyogenes and subsequently given a total of three treatments at three hourly intervals. Three hours after the last treatment, skin biopsies were collected and the number of colony forming units (CFUs) present in the skin sample was determined. Results are shown in FIGS. 1 and 2, expressed as the number of colony forming units per mouse.
# as §3, with “3, 4” for “1”, “5” for “2,”
# [27] = test system: Propionibacterium acnes- antibiotic-susceptible clinical isolate; assay: MIC microbroth dilution (CLSI); type: cell-based; details: P. acnes antibiotic-susceptible
# Method: Supplemented Brucella broth (SBB) was used for the anaerobic strains with an inoculum of approximately 10^6 CFU/mL. SBB is a broth consisting of 1% peptone, 0.5% ‘Lab-lemco’, 1% glucose and 0.5% sodium chloride supplemented with 5 […] vitamin K (both obtained from Sigma Aldrich Ltd.)
# [28] = test system: Haemophilus influenzae β- lactamase negative ampicillin-resistant clinical isolate
# [29] = test system: Salmonella sp - antibiotic-susceptible clinical isolate; assay: MIC microbroth dilution (CLSI); type: cell-based
# Source text: as §2
# [30] = test system: Shigella sp - antibiotic-susceptible clinical isolate; assay: MIC microbroth dilution (CLSI); type: cell-based
# Source text: as §2
# [31] = test system: Salmonella sp - multi-drug resistant clinical isolate; assay: MIC microbroth dilution (CLSI); type: cell-based
# Source text: as §2
# S. pyogenes = details: Table 5
smiles,measurement,setting,value
CCCCCCNC(=O)[C@H](CCCNC(=N)N)NC(=O)[C@H](Cc1c(C(C)(C)C)[nH]c2c(C(C)(C)C)cc(C(C)(C)C)cc12)NC(=O)[C@@H](N)CCCNC(=N)N [Compound 8],MIC,[1],8 µg/mL
same,MIC,[2],4 µg/mL
same,MIC,[3],4 µg/mL
same,MIC,[4],2 µg/mL
same,MIC,[5],4 µg/mL
same,MIC,[6],4 µg/mL
same,MIC,[7],4 µg/mL
same,MIC,[8],4 µg/mL
same,MIC,[9],8 µg/mL
same,MIC,[10],4 µg/mL
same,MIC,[11],2 µg/mL
same,MIC,[12],8 µg/mL
same,MIC,[13],4 µg/mL
same,MIC,[14],4 µg/mL
same,MIC,[15],4 µg/mL
same,MIC,[16],4 µg/mL
same,MIC,[17],8 µg/mL
same,MIC,[18],8 µg/mL
same,MIC,[19],4 µg/mL
same,MIC,[20],4 µg/mL
same,MIC,[21],8 µg/mL
same,MIC,[22],8 µg/mL
same,MIC,[23],8 µg/mL
same,MIC,[24],4 µg/mL
same,E. coli (MIC),E. coli,5 µg/mL
same,MRSE (MIC),[25],<1 µg/mL
same,number of CFUs in skin biopsy vs controls,[26],more effective at reducing the number of CFUs than the placebo and fucidin or bactroban
same,MIC,[27],4 µg/mL
same,MIC,[28],8 µg/mL
same,MIC,[29],8 µg/mL
same,MIC,[30],4 µg/mL
same,MIC,[31],8 µg/mL
same,S. pyogenes (MIC),S. pyogenes,2 µg/mL
